From patent publication US11149033B2, “Heteroaryl compound, enantiomer, diastereomer or pharmaceutically acceptable salt thereof, and antiviral composition containing same as active ingredient” (priority 2016, dated 2021)
pEC50: −log10 of the molar value. Read-outs that look alike come from different tables or passages of the source.

Assays:
B/Florida/04/2006 = assay: Antiviral activity (drug efficacy evaluation by concentration) against B/Florida/04/2006; format: cell-based, B type influenza virus
[1] = test system: A/California/07/2009 (H1N1); assay: Antiviral activity (drug efficacy evaluation by concentration) against A/California/07/2009 (H1N1); format: cell-based, A type influenza virus; conditions: Influenza A virus
A/Perth/16/2009 (H3N2) = assay: Antiviral activity (drug efficacy evaluation by concentration) against A/Perth/16/2009 (H3N2); format: cell-based, A type influenza virus; conditions: Influenza A virus
[2] = CC50 B/Florida/04/2006, cytotoxicity in the B/Florida/04/2006 assay
[3] = read-out: EC50 B/Florida/04/2006, B/Florida/04/2006
[4] = H1N1, A/California/07/2009 (H1N1), read-out: EC50 A/California/07/2009 (H1N1)
[5] = H3N2, A/Perth/16/2009 (H3N2), read-out: EC50 A/Perth/16/2009 (H3N2)
[6] = CC50, third EC50/CC50 column pair (c7), beside the EC50 of c6

| SMILES | CC50 (in vitro; [2]) | pEC50 (B/Florida/04/2006; [3]) | pEC50 [1, 4] | pEC50 (A/Perth/16/2009 (H3N2); [5]) | CC50 (in vitro; CC50, beside the EC50 of c2) | CC50 (in vitro; CC50, beside the EC50 of c4) | CC50 (in vitro; [6]) | pEC50 (B/Florida/04/2006) | pEC50 ([1]; H1N1, read-out: EC50) | pEC50 (A/Perth/16/2009 (H3N2); H3N2, read-out: EC50) | melting point |
| --- | --- | --- | --- | --- | --- | --- | --- | --- | --- | --- | --- |
| Cc1nn(Cc2nnc(NCc3ccccc3-c3ccccc3)o2)c(C)c1Br [Compound 17, N-([1,1′-biphenyl]-2-ylmethyl)-5-((4-bromo-3,5-dimethyl-1H-pyrazol-1-yl)methyl)-1,3,4-oxadiazol-2-amine] | 38.1 µM | 4.72 | 4.45 | 4.52 |  |  |  |  |  |  |  |
| CC(=O)N(Cc1ccccc1-c1ccccc1)c1nnc(Cn2nc(C)c(Br)c2C)o1 [Compound 45, N-([1,1′-biphenyl]-2-ylmethyl)-N-(5-((4-bromo-3,5-dimethyl-1H-pyrazol-1-yl)methyl)-1,3,4-oxadiazol-2-yl)acetamide] | 33.5 µM | 4.62 | 4.58 | 4.59 |  |  |  |  |  |  |  |
| Cc1ccc(/C=C/c2nnc(Cc3cccc(Br)c3)o2)c(Cl)c1 [Compound 195, 2-(3-bromobenzyl)-5-(2-chloro-4-methylstyryl)-1,3,4-oxadiazole] |  |  |  |  | > 50 µM | > 50 µM | > 50 µM | 5.24 | 5.21 | 5.24 |  |
| Fc1ccc(/C=C/c2nnc(Cc3cncc(Br)c3)o2)c(Cl)c1 [Compound 205, (E)-2-((5-bromopyridin-3-yl)methyl)-5-(2-chloro-4-fluorostyryl)-1,3,4-oxadiazole] |  |  |  |  | > 50 µM | > 50 µM | > 50 µM | 4.46 | 4.37 | 4.67 |  |
| FC(F)(F)Oc1ccc(Cc2nnc(SCc3ccccc3-c3ccccc3)o2)cc1 [Compound 106, 2-(([1,1′-biphenyl]-2-ylmethyl)thio)-5-(4-(trifluoromethoxy)benzyl)-1,3,4-oxadiazole] |  |  |  |  | > 50 µM | > 50 µM | > 50 µM | 4.92 | 4.94 | 4.93 |  |
| CC(C)c1ccc(/C=C/c2nnc(Cc3ccc(Br)cc3)o2)cc1 [Compound 154, 2-(4-bromobenzyl)-5-(4-isopropylstyryl)-1,3,4-oxadiazole] |  |  |  |  | > 50 µM | > 50 µM | > 50 µM | < 4.30 |  |  | 139.8 °C |
| Brc1ccc(Cc2nnc(CC3CCCc4ccccc43)o2)cc1 (centres unmarked) [Compound 109, 2-(4-bromobenzyl)-5-((1,2,3,4-tetrahydronaphthalen-1-yl)methyl)-1,3,4-oxadiazole] |  |  |  |  | > 50 µM | > 50 µM | > 50 µM | 4.46 | 4.34 | 4.49 |  |
| Brc1ccc(Nc2nnc(CCc3ccccc3-c3ccccc3)o2)cc1 [Compound 118, 5-(2-([1,1′-biphenyl]-2-yl)ethyl)-N-(4-bromophenyl)-1,3,4-oxadiazol-2-amine] |  |  |  |  | > 50 µM | > 50 µM | > 50 µM | < 4.30 | 4.36 | < 4.30 |  |
| Cc1nn(Cc2nnc(SCc3ccccc3-c3ccccc3)o2)c(C)c1Cl [Compound 7, 2-(([1,1′-biphenyl]-2-ylmethyl)thio)-5-((4-chloro-3,5-dimethyl-1H-pyrazol-1-yl)methyl)-1,3,4-oxadiazole] | > 50 µM | 5.95 | 5.90 | 5.72 |  |  |  |  |  |  |  |
| Cc1nn(Cc2nnc(N(C)Cc3ccccc3-c3ccccc3)o2)c(C)c1Br [Compound 44, N-([1,1′-biphenyl]-2-ylmethyl)-5-((4-bromo-3,5-dimethyl-1H-pyrazol-1-yl)methyl)-N-methyl-1,3,4-oxadiazol-2-amine] | > 50 µM | < 4.30 | < 4.30 | 4.53 |  |  |  |  |  |  |  |
| CC(C)c1ccccc1/C=C/c1nnc(Cc2ccc(Br)cc2)o1 [Compound 82, (E)-2-(4-bromobenzyl)-5-(2-isopropylstyryl)-1,3,4-oxadiazole] |  |  |  |  | > 50 µM | > 50 µM | > 50 µM | < 4.30 |  |  | 91.6 °C |
| Cc1ccccc1CC(C)c1nnc(Cc2ccc(Br)cc2)o1 (centres unmarked) [Compound 140, 2-(4-bromobenzyl)-5-(1-(o-tolyl)propan-2-yl)-1,3,4-oxadiazole] |  |  |  |  | > 50 µM | > 50 µM | > 50 µM | 4.85 | 4.74 | 4.70 |  |
| FC(F)(F)c1cccc(/C=C/c2nnc(Cc3ccc(Br)cc3)o2)c1Cl [Compound 152, 2-(4-bromobenzyl)-5-(2-chloro-3-(trifluoromethyl)styryl)-1,3,4-oxadiazole] |  |  |  |  | > 50 µM | > 50 µM | > 50 µM | < 4.30 |  | < 4.30 | 118.9 °C |
| c1ccc(-c2cnn(Cc3nnc(SCc4ccccc4-c4ccccc4)o3)c2)cc1 [Compound 30, 2-(([1,1′-biphenyl]-2-ylmethyl)thio)-5-((4-phenyl-1H-pyrazol-1-yl)methyl)-1,3,4-oxadiazole] | > 50 µM | < 4.30 | < 4.30 | 4.89 |  |  |  |  |  |  |  |
| Brc1cnn(Cc2nnc(SCc3ccccc3-c3ccccc3)o2)c1 [Compound 3, 2-(([1,1′-biphenyl]-2-ylmethyl)thio)-5-((4-bromo-1H-pyrazol-1-yl)methyl)-1,3,4-oxadiazole] | > 50 µM | 5.92 | 5.87 | 5.76 |  |  |  |  |  |  |  |
| Cc1cccc(C)c1CCc1nnc(Cc2ccc(Br)cc2)o1 [Compound 135, 2-(4-bromobenzyl)-5-(2,6-dimethylphenethyl)-1,3,4-oxadiazole] |  |  |  |  | > 50 µM | > 50 µM | > 50 µM | 5.25 | 5.19 | 5.36 |  |
| Brc1cccc(Cc2nnc(SCc3ccccc3-c3ccccc3)o2)c1 [Compound 104, 2-(([1,1′-biphenyl]-2-ylmethyl)thio)-5-(3-bromobenzyl)-1,3,4-oxadiazole] |  |  |  |  | > 50 µM | > 50 µM | > 50 µM | 4.37 | < 4.30 | < 4.30 |  |
| Fc1ccc(/C=C/c2nnc(Cc3ccc(Cl)c(Cl)c3)o2)c(Cl)c1 [Compound 208, 2-(2-chloro-4-fluorostyryl)-5-(3,4-dichlorobenzyl)-1,3,4-oxadiazole] |  |  |  |  | > 50 µM | > 50 µM | > 50 µM | 5.92 |  | 6.14 | 179.9 °C |
| CC(C)c1ccccc1/C=C/c1nnc(Cc2ccc(F)c(Cl)c2)o1 [Compound 131, 2-(3-chloro-4-fluorobenzyl)-5-(2-isopropylstyryl)-1,3,4-oxadiazole] |  |  |  |  |  |  |  | 5.99 | 6.03 | 6.08 |  |
| CCn1c(Cn2nc(C)c(Br)c2C)nnc1SCc1ccccc1-c1ccccc1 [Compound 24, 3-(([1,1′-biphenyl]-2-ylmethyl)thio)-5-((4-bromo-3,5-dimethyl-1H-pyrazol-1-yl)methyl)-4-ethyl-4H-1,2,4-triazole] | > 50 µM | < 4.30 |  | < 4.30 |  |  |  |  |  |  | 137.8 °C |
| Brc1ccc(NCc2nnc(SCc3ccccc3-c3ccccc3)o2)cc1 [Compound 47, N-((5-(([1,1′-biphenyl]-2-ylmethyl)thio)-1,3,4-oxadiazol-2-yl)methyl)-4-bromoaniline] | > 50 µM | < 4.30 | < 4.30 |  |  |  |  |  |  |  |  |
| Cc1ccc(Cc2nnc(/C=C/c3ccccc3C(C)C)o2)cc1Br [Compound 145, 2-(3-bromo-4-methylbenzyl)-5-(2-isopropylstyryl)-1,3,4-oxadiazole] |  |  |  |  | > 50 µM | > 50 µM | > 50 µM | < 4.30 |  | 4.31 | 111.2 °C |
| COc1cccc(Cc2nnc(/C=C/c3ccc(F)cc3Cl)o2)c1 [Compound 202, (E)-2-(2-chloro-4-fluorostyryl)-5-(3-methoxybenzyl)-1,3,4-oxadiazole] |  |  |  |  | > 50 µM | > 50 µM | > 50 µM | < 4.30 |  | < 4.30 | 131.7 °C |
